Counter-ions that a name gives are not always drawn.
Tests used:
Experiment in all cases: Enzymatic Assay
Settings in all cases: pH 7.5; 24 °C
Phosphodiesterase = molecular target: T1, Phosphodiesterase (Trypanosoma cruzi, UniProt Q53I59)
T1 sequence (Q53I59 whole entry): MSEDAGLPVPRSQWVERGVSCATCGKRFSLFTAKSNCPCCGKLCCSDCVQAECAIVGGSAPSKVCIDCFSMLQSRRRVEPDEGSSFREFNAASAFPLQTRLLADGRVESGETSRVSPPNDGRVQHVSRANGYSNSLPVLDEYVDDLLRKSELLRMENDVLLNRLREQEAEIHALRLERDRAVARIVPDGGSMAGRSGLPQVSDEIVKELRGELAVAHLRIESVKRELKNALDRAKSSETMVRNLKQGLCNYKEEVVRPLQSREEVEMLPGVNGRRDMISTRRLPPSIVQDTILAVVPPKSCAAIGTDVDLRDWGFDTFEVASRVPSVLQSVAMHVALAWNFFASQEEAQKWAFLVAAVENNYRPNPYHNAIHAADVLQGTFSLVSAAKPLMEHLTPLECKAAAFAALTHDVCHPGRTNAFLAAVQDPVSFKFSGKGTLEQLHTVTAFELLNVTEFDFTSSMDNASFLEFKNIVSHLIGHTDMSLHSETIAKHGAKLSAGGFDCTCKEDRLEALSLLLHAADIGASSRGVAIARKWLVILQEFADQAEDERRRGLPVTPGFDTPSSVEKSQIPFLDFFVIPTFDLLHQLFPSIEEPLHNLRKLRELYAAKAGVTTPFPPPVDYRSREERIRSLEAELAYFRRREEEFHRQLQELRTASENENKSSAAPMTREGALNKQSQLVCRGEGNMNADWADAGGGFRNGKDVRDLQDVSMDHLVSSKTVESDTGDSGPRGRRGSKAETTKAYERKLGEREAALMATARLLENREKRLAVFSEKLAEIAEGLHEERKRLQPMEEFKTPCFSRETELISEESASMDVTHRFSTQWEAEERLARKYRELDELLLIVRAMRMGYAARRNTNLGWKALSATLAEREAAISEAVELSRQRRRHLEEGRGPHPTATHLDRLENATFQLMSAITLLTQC
Method: (§1) Enzymatic activities were assayed using [3H] cAMP and [3H]cGMP as substrate.

[1] = molecular target: cGMP-dependent 3',5'-cyclic phosphodiesterase (Homo sapiens, UniProt O00408)
Sequence of cGMP-dependent 3',5'-cyclic phosphodiesterase (O00408 whole entry): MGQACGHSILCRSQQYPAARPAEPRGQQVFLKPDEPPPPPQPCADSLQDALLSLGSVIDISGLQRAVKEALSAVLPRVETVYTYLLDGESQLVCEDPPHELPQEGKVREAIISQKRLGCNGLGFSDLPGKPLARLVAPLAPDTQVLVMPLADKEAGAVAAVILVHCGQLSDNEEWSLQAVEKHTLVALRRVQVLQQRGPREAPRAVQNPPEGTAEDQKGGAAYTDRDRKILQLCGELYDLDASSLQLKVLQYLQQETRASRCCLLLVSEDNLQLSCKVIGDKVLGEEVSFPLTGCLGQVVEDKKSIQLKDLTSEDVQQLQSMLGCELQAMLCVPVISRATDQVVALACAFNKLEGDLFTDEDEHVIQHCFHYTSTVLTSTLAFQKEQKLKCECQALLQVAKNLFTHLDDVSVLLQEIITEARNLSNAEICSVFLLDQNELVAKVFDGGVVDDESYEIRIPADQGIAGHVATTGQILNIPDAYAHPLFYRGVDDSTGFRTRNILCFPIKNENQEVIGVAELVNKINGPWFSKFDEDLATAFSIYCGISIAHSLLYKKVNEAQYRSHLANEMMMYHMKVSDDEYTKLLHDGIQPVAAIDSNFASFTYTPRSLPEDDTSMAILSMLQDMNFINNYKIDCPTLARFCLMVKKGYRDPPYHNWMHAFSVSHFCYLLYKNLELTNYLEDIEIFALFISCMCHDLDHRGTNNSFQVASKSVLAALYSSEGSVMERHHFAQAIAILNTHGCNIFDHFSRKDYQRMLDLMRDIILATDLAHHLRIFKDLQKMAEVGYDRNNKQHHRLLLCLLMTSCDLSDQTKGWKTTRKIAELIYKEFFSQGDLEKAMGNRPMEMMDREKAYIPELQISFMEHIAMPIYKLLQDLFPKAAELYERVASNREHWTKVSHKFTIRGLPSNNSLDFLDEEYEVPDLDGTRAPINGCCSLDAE
Method: as §1

[2] = molecular target: cGMP-inhibited 3',5'-cyclic phosphodiesterase 3A (Homo sapiens, UniProt Q14432)
Sequence of cGMP-inhibited 3',5'-cyclic phosphodiesterase 3A (Q14432 whole entry): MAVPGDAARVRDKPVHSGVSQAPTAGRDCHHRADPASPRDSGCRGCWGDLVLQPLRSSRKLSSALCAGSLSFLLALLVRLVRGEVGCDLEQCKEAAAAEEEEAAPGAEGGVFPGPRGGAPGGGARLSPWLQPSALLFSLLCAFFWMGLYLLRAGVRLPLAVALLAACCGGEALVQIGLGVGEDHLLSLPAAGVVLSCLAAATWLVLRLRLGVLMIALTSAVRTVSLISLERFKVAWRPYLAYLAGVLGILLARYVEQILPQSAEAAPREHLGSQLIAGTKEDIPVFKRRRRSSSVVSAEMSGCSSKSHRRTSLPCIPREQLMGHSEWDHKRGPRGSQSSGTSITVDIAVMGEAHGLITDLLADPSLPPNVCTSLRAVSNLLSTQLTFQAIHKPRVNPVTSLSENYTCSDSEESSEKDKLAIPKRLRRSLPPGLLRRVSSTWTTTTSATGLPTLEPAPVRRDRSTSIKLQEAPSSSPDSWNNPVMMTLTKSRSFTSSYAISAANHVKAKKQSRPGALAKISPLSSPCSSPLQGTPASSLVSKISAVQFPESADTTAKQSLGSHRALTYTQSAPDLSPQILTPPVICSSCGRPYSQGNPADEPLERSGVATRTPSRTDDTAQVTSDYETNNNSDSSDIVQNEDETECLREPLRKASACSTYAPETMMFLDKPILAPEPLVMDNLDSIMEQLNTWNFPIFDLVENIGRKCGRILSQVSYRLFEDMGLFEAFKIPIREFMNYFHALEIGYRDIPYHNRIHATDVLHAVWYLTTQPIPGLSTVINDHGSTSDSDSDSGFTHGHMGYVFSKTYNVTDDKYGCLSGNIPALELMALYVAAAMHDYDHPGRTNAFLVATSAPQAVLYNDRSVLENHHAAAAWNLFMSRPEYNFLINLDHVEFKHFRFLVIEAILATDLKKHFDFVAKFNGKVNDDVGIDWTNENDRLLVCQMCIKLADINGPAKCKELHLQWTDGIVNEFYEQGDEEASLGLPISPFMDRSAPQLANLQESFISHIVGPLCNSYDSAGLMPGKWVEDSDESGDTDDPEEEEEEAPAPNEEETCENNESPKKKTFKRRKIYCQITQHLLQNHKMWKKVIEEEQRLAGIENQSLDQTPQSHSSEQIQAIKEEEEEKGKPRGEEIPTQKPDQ
Method: as §1

[3] = molecular target: cGMP-specific 3',5'-cyclic phosphodiesterase (Homo sapiens, UniProt O76074)
Method: as §1

[4] = molecular target: High affinity cAMP-specific and IBMX-insensitive 3',5'-cyclic phosphodiesterase 8A (Homo sapiens, UniProt O60658)
Sequence of High affinity cAMP-specific and IBMX-insensitive 3',5'-cyclic phosphodiesterase 8A (O60658 whole entry): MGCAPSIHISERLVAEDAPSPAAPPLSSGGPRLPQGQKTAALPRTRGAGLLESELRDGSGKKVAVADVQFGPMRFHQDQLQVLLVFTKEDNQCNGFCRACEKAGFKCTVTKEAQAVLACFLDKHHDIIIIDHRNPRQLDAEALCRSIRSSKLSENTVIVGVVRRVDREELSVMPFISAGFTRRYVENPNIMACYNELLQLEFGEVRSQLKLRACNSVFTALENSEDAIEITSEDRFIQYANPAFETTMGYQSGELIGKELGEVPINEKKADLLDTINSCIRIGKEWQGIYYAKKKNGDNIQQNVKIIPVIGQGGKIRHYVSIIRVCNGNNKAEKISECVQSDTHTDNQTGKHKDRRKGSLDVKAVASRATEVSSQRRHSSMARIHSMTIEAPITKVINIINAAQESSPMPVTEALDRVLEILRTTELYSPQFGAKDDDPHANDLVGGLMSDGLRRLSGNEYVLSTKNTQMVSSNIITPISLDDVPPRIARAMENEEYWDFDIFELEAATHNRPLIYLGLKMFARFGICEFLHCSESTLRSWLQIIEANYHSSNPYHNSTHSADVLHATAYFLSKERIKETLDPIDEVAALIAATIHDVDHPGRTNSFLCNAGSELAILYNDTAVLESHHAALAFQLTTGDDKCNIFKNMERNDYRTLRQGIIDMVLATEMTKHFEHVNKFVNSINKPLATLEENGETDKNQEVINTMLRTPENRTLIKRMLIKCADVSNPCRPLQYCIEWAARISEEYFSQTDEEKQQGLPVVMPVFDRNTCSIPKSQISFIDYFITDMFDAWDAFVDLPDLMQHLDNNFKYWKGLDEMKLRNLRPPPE
Method: as §1

[5] = molecular target: cAMP-specific 3',5'-cyclic phosphodiesterase 4D (Homo sapiens, UniProt Q08499)
Sequence of cAMP-specific 3',5'-cyclic phosphodiesterase 4D (Q08499 whole entry): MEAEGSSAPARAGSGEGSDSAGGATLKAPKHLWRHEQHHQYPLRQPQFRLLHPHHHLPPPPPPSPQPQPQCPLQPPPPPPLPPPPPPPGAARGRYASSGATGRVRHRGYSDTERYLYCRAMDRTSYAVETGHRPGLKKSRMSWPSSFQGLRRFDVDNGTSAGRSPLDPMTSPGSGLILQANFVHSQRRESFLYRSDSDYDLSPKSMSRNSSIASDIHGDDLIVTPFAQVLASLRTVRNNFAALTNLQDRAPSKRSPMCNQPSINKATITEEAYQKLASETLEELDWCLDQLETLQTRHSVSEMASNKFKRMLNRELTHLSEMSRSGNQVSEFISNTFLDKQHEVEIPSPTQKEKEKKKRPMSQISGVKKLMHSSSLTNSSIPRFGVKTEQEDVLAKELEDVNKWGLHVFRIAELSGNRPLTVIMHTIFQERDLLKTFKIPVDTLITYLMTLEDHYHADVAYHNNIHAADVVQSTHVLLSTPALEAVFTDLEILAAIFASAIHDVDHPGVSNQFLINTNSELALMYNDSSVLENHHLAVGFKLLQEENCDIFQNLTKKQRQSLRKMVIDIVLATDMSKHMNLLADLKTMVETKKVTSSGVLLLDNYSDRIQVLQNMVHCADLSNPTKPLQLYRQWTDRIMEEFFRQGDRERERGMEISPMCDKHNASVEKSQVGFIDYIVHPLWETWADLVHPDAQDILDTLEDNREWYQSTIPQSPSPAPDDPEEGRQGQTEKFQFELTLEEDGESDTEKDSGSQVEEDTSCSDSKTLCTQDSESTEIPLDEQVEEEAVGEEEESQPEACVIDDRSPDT
Method: as §1

SMILES	IC50 (Phosphodiesterase) [nM]	other results
CN(C(=O)CCCOc1ccc2[nH]c(=O)ccc2c1)C1CCCCC1 [N-Cyclohexyl-N-methyl-4-(2-oxo-1,2-dihydro-quinolin-6-yloxy)-butyramide]	> 100000	
CCCCCC[C@H]([C@H](C)O)n1cnc2c(N)ncnc21 (relative stereo) [3-(6-amino-9H-purin-9-yl)nonan-2-ol]	> 100000	IC50 [1]: 800 nM
COc1cc2c(cc1OC)-c1c/c(=N\c3c(C)cc(C)cc3C)n(C)c(=O)n1CC2 [CAS_5537]	3900	IC50 [2]: 0.3 nM
CCCc1nn(C)c2c(=O)[nH]c(-c3cc(S(=O)(=O)NC(=O)OC(C)C)ccc3OCC)nc12 [Wyq16#]	230	IC50 [3]: 3 nM
COc1ccc([C@@H]2CNC(=O)C2)cc1OC1CCCC1 (racemic) [Adeo]	> 100000	
CC(=O)CCCCn1c(=O)c2c(ncn2C)n(C)c1=O [1-(5-Oxohexyl)theobromine (pentoxifylline)]	> 100000	
OCCN(CCO)c1nc(N2CCCCC2)c2nc(N(CCO)CCO)nc(N3CCCCC3)c2n1 [Dipyridamine]	6900	IC50 [4]: 500 nM
CCCc1nn(C)c2c(=O)[nH]c(-c3cc(S(=O)(=O)N4CCN(C)CC4)ccc3OCC)nc12 [SILDENAFIL CITRATE]	> 1000	
COc1ccc(Cc2nccc3cc(OC)c(OC)cc23)cc1OC	25000	
Cc1[nH]c(=O)c(C#N)cc1-c1ccncc1 [Milrinone]	> 100000	
CC(C)Cn1c(=O)n(C)c(=O)c2[nH]cnc21 [1-methyl-3-(2-methylpropyl)-2,3,6,7-tetrahydro-1H-purine-2,6-dione]	68000	
COc1cc(-c2ccc(=O)[nH]n2)ccc1OC(F)F [6-[4-(difluoromethoxy)-3-methoxyphenyl]-2,3-dihydropyridazin-3-one]	> 100000	IC50 [2]: 500 nM
CCOC(=O)c1cnc2c(cnn2CC)c1N=NC(C)C [1-Ethyl-4-(N'-isopropylidene-hydrazino)-1H-pyrazolo[3,4-b]pyridine-5-carboxylic acid ethyl ester]	700	IC50 [5]: 2000 nM
CCCOc1cc(CC2CNC(=O)N2)ccc1OC (stereo not given) [Ro20-1724]	> 100000	

— BindingDB's records for doi:10.1074/jbc.M111.326777 (University of North Carolina, 2012)
